Source: ChEMBL document CHEMBL4715930, “Reactivation of the Guardian of the Genome P53: A Promising Strategy for Treatment of Cancer” (ACS Med Chem Lett, 2021)

Molecular target: Tumour suppressor p53/oncoprotein Mdm2 (Homo sapiens, UniProt Q00987)
Test: Inhibition of GST-tagged MDM2 (23 to 117 residues) (unknown origin) assessed as inhibition of MDM2/biotinylated wild type human p53 (16 to 27 residues) interaction by measuring reactivation of p53 incubated for 15 mins by AlphaScreen assay
Type: protein assay

Sequence of Tumour suppressor p53/oncoprotein Mdm2 (P04637 whole entry, the tested form may be a part): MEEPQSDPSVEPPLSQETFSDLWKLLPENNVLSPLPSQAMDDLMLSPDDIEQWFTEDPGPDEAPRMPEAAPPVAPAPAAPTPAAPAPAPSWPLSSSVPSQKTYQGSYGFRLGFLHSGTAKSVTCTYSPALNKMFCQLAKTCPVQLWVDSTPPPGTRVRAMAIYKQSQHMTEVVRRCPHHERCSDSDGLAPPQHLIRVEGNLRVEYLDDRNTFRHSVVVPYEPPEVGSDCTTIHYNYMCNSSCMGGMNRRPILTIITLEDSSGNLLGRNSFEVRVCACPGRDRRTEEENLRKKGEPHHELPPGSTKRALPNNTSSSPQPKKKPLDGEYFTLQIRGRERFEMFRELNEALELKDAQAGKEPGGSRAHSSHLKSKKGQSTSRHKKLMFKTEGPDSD
Sequence of Tumour suppressor p53/oncoprotein Mdm2 (Q00987 whole entry, the tested form may be a part): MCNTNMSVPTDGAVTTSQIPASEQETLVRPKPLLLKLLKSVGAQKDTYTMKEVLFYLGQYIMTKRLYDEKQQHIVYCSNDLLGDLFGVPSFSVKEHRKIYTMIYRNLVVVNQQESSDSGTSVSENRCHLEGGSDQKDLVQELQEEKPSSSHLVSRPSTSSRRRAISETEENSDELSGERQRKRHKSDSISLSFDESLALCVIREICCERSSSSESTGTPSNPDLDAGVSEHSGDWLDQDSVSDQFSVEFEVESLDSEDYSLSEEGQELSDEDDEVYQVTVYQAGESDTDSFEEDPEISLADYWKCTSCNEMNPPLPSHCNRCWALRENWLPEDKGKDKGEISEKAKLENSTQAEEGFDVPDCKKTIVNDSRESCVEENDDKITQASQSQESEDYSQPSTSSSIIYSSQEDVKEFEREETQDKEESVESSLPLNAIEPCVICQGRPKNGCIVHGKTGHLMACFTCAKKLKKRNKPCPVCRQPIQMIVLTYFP

IC50	Structure (SMILES)
5 nM	CCOc1cccc(CN2[C@H]3Cc4c5cc(C)c(C(=O)NC)cc5nn4[C@H]3[C@H](c3cccc(Cl)c3F)[C@]23C(=O)Nc2nc(Cl)ccc23)c1
10 nM	Cc1c(C(=O)N2CCCCC2)ccn2c3c(nc12)[C@@H]1[C@H](CC3)N(CC2CC2)[C@@]2(C(=O)Nc3cc(Cl)ccc32)[C@H]1c1ccnc(Cl)c1F
79 nM	O=C(O)c1ccc2c(c1)nc1n2CC[C@@H]2[C@H]1[C@H](c1cccc(Cl)c1F)[C@]1(C(=O)Nc3cc(Cl)ccc31)N2CC1CC1
